Experiments:
[1] = system: Gallbladder strips; experiment: CCK-antagonism in isolated gallbladder (contraction of strips induced by CCK-8); format: cell-based, Hartley guinea-pig; conditions: Cavia porcellus; antagonism of gallbladder contraction induced by 10⁻⁸ M CCK-8, guinea-pig strips, Krebs solution, 37°C; read-out: IC₅₀
Description: Gallbladder strips isolated from male Hartley guinea-pig were prepared and suspended in Magnus bath filled with Krebs solution (1 g of initial tension). The solution kept at 37°C was aerated with a mixture of 95% O₂ and 5% CO₂. The isometric contraction of strips was recorded through a force-displacement transducer. Antagonism by test drugs against gallbladder contraction induced by 10⁻⁸ M CCK-8 was examined and IC₅₀ value was calculated.

[2] = system: amylase secretion; experiment: Effect on amylase secretion in rats (stimulated by CCK-8); format: in vivo; conditions: Rattus norvegicus, sc; intraduodenal administration 30 minutes before CCK-8 (10 µg/kg, subcutaneous); anesthetized male Wistar rats; amylase in biliopancreatic juice; read-out: ED₅₀
Description: Male Wistar rats were anesthetized with urethane (1.5 g/kg, S.C.), and tracheal cannula was inserted. Biliopancreatic juice was collected from the cannula which had been inserted into the common bile duct. Thirty minutes after intraduodenal administration of test drug, anylase secretion was stimulated by subcutaneous injection of CCK-8 (10 µg/kg). Amylase concentration in the sample collected every 30 minutes during experiment was assayed using Amylase B Test (Wako), and ED₅₀ value was calculated.

Row | Structure (SMILES) | IC50 [1] | ED50 [2]
1 | CCCCCN(CCCCC)C(=O)C(CC(=O)O)CS(=O)(=O)c1ccc(Cl)c(Cl)c1 (racemic) [Compound 29] | 37 µM | 9.9 mg/kg
2 | CCCCCCN(CCCCCC)C(=O)C(CCC(=O)O)CS(=O)(=O)c1ccc(Cl)c(Cl)c1 (racemic) [Compound 33] |  | 7.1 mg/kg

Source: patent EP0508004A1, “Phenylsulfonylalkanoic acid compounds” (Kissei Pharmaceutical Co., Ltd., priority 1991, dated 1992)
